Assay type in all cases: in vivo
Assay [1] deals with Beet Armyworm (Spodoptera exigua, LAPHEG). As to the kind of experiment: Bioassay on Beet Armyworm (BAW), 128-well diet tray assay. In short, it runs like this: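 Diet in each of eight wells received 50 μg/cm^2 of test molecule (90:10 acetone-water, dried), then one to five second-instar larvae were added. Mortality (%) was scored after five to seven days at 25° C. under 14:10 light-dark and averaged across the wells.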

For assay [2], the system named is Cabbage Looper (Trichoplusia ni, TRIPNI). Description: Bioassay on Cabbage Looper (CL), 128-well diet tray assay. The following applies: Trichoplusia ni. In short, it runs like this:
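Percent mortality, averaged across eight replicate wells, was scored after five to seven days at 25° C. under a 14:10 light-dark cycle. Each well held one to five second instar larvae on artificial diet treated at 50 μg/cm^2 with compound from 90:10 acetone-water, allowed to dry before infestation.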

For assay [3], the system named is Yellow Fever Mosquito (Aedes aegypti, AEDSAE). As to the kind of experiment: Bioassay on Yellow Fever Mosquito (YFM), 96-well plate larval assay. The following applies: for YFM rating: Yellow Fever Mosquito, 96-well plate larval assay; for YFM (Biological Results, rating): Species YFM (Yellow Fever Mosquito). An outline of the steps: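 Compound stocks at 4000 ppm in DMSO were diluted with 90:10 water/acetone, and 15 μL aliquots were dispensed into six replicate plates. About 1-day-old larvae in liver-powder water were added per well. Plates were covered and held at room temperature for 3 days before each well was scored for mortality.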

[4] abbreviates: Beet Armyworm, 128-well diet tray assay, read-out: BAW rating.
[5] abbreviates: Cabbage Looper, 128-well diet tray assay, read-out: CL rating.
Where [6] appears, read: Species BAW (Beet Armyworm), read-out: BAW (Biological Results, rating).
[7] abbreviates: Species CL (Cabbage Looper), read-out: CL (Biological Results, rating).

From patent US10219516B2, “Molecules having pesticidal utility, and intermediates, compositions, and processes, related thereto” (priority 2015, dated 2019) come the findings set out here.

Where two headings read alike, the source gives them in different places.

For the compound `O=C(Nc1ccc(S(=O)(=O)CC(F)(F)F)cc1)c1cc(NC(=O)[C@H]2[C@H](c3cc(Cl)cc(Cl)c3)C2(Cl)Cl)ccc1Cl` (relative stereo) [PF17, trans-2-chloro-5-(2,2-dichloro-3-(3,5-dichlorophenyl)cyclopropane-1-carboxamido)-N-(4-((2,2,2-trifluoroethyl)sulfonyl)phenyl)benzamide], the pest or weed control at 50 µg/cm2 in assay [1] (setting [4]) and in assay [2] (setting [5]) was 50 to 100% throughout. In addition, in assay [3], the YFM rating entry is “B (More than 0-Less than 80)”.
As for `O=C(Nc1ccc(F)cc1[N+](=O)[O-])c1cc(NC(=O)[C@H]2[C@H](c3cc(Cl)cc(Cl)c3)C2(Cl)Cl)ccc1Cl` [F554, 2-Chloro-5-((1R,3R)-2,2-dichloro-3-(3,5-dichlorophenyl)cyclopropane-1-carboxamido)-N-(4-fluoro-2-nitrophenyl)benzamide], the pest or weed control at 50 µg/cm2 in assay [1] (setting [4]) and in assay [2] (setting [5]) was 50 to 100% in each case. Besides, the YFM rating result in assay [3] was “A (80-100)”.
Take `C=C(F)c1cc([C@H]2[C@H](C(=O)Nc3ccc(Cl)c(C(=O)Nc4ccc(F)cc4)c3)C2(Cl)Cl)ccc1Cl` (relative stereo) [F384, 2-Chloro-5-(trans-2,2-dichloro-3-(4-chloro-3-(1-fluorovinyl)phenyl)cyclopropane-1-carboxamido)-N-(4-fluorophenyl)benzamide]: the pest or weed control at 50 µg/cm2 in assay [1] (setting [4]) and in assay [2] (setting [5]) was 50 to 100% each time. Further, the YFM rating result in assay [3] is recorded as “A (80-100)”.
Turning to `O=C(Nc1ccc(F)cc1F)c1cc(NC(=O)[C@H]2[C@H](c3ccc(C(F)(F)F)c(F)c3)C2(Cl)Cl)ccc1Cl` (relative stereo) [F347, 2-Chloro-5-(trans)-(2,2-dichloro-3-(3-fluoro-4-(trifluoromethyl)phenyl)cyclopropane-1-carboxamido)-N-(2,4-difluorophenyl)benzamide], the pest or weed control at 50 µg/cm2 in assay [1] (setting [6]) and in assay [2] (setting [7]) was 50 to 100% each time. Further, in assay [3], the “YFM (Biological Results, rating)” value was “A (80-100)”.
Regarding `N#Cc1cc(F)ccc1NC(=O)c1cc(NC(=O)[C@H]2[C@H](c3cc(Cl)cc(Cl)c3)C2(Cl)Cl)ccc1Cl` [F535, 2-Chloro-N-(2-cyano-4-fluorophenyl)-5-((1R,3R)-2,2-dichloro-3-(3,5-dichlorophenyl)cyclopropane-1-carboxamido)benzamide], the pest or weed control at 50 µg/cm2 in assay [1] (setting [4]) and in assay [2] (setting [5]) was 50 to 100% in each case. For the same compound, in assay [3], the YFM rating entry was “A (80-100)”.
In the case of `COc1c(Cl)cc([C@H]2[C@H](C(=O)Nc3ccc(Cl)c(C(=O)Nc4ccccc4)c3)C2(Cl)Cl)cc1Cl` (relative stereo) [F179, trans-2-chloro-5-(2,2-dichloro-3-(3,5-dichloro-4-methoxyphenyl)cyclopropane-1-carboxamido)-N-phenylbenzamide], the pest or weed control at 50 µg/cm2 in assay [1] (setting [6]) and in assay [2] (setting [7]) was 50 to 100% throughout. Further, the “YFM (Biological Results, rating)” value in assay [3] was “B (More than 0-Less than 80)”.
As for `O=C(Nc1ccc(F)cc1[N+](=O)[O-])c1cc(NC(=O)[C@H]2[C@H](c3cc(Cl)c(Cl)c(Cl)c3)C2(Cl)Cl)ccc1Cl` [F556, 2-Chloro-5-((1R,3R)-2,2-dichloro-3-(3,4,5-trichlorophenyl)cyclopropane-1-carboxamido)-N-(4-fluoro-2-nitrophenyl)benzamide], the pest or weed control at 50 µg/cm2 in assay [1] (setting [4]) and in assay [2] (setting [5]) was 50 to 100% each time. The YFM rating entry in assay [3] was “A (80-100)”.
As for `C=Cc1c(F)cc([C@H]2[C@H](C(=O)Nc3ccc(Cl)c(C(=O)Nc4ccc(F)cc4F)c3)C2(Cl)Cl)cc1F` (relative stereo) [F566, 2-Chloro-5-(trans-2,2-dichloro-3-(3,5-difluoro-4-vinylphenyl)cyclopropane-1-carboxamido)-N-(2,4-difluorophenyl)benzamide], the pest or weed control at 50 µg/cm2 in assay [1] (setting [4]) and in assay [2] (setting [5]) was 50 to 100% each time. Further, the YFM rating result in assay [3] is reported as “A (80-100)”.
`CC(=O)c1cc(F)ccc1NC(=O)c1cc(NC(=O)[C@H]2[C@H](c3cc(Cl)cc(Cl)c3)C2(Cl)Cl)ccc1Cl` (relative stereo) [PF77, trans-N-(2-acetyl-4-fluorophenyl)-2-chloro-5-(2,2-dichloro-3-(3,5-dichlorophenyl)cyclopropane-1-carboxamido)benzamide]: the pest or weed control at 50 µg/cm2 in assay [1] (setting [4]) and in assay [2] (setting [5]) was 50 to 100% in each case. For the same compound, the YFM rating result in assay [3] is given as “A (80-100)”.
Consider `CN1CCc2cc(NC(=O)c3cc(NC(=O)[C@H]4[C@H](c5cc(Cl)cc(Cl)c5)C4(Cl)Cl)ccc3Cl)ccc21` (relative stereo) [F473, 2-Chloro-5-(trans)-(2,2-dichloro-3-(3,5-dichlorophenyl)cyclopropane-1-carboxamido)-N-(1-methylindolin-5-yl)benzamide], for which the pest or weed control at 50 µg/cm2 in assay [1] (setting [4]) and in assay [2] (setting [5]) was 50 to 100% each time. In assay [3], the YFM rating entry was “A (80-100)”.
With `O=C(Nc1ncc(F)cc1F)c1cc(NC(=O)[C@H]2[C@H](c3cc(F)cc(C(F)F)c3)C2(Cl)Cl)ccc1Cl` (relative stereo) [F586, 2-Chloro-5-(trans-2,2-dichloro-3-(3-(difluoromethyl)-5-fluorophenyl)cyclopropane-1-carboxamido)-N-(3,5-difluoropyridin-2-yl)benzamide], the pest or weed control at 50 µg/cm2 in assay [1] (setting [4]) and in assay [2] (setting [5]) was 50 to 100% throughout. In addition, in assay [3], the YFM rating result is given as “A (80-100)”.
Regarding `C=Cc1ccc([C@H]2[C@H](C(=O)Nc3ccc(Cl)c(C(=O)Nc4ccc(F)c(N)c4F)c3)C2(Cl)Cl)cc1Cl` (relative stereo) [F355, N-(3-Amino-2,4-difluorophenyl)-2-chloro-5-(trans-2,2-dichloro-3-(3-chloro-4-vinylphenyl)cyclopropane-1-carboxamido)benzamide], the pest or weed control at 50 µg/cm2 in assay [1] (setting [6]) and in assay [2] (setting [7]) was 50 to 100% in each case. The “YFM (Biological Results, rating)” value in assay [3] was “A (80-100)”.
Consider `O=C(Nc1ccc(F)cc1F)c1cc(NC(=O)[C@H]2[C@H](c3ccc(C(F)(F)F)c(Cl)c3)C2(Cl)Cl)ccc1Cl` (relative stereo) [F367, 2-Chloro-5-(trans)-(2,2-dichloro-3-(3-chloro-4-(trifluoromethyl)phenyl)cyclopropane-1-carboxamido)-N-(2,4-difluorophenyl)benzamide], for which the pest or weed control at 50 µg/cm2 in assay [1] (setting [6]) and in assay [2] (setting [7]) was 50 to 100% in each case. Besides, the “YFM (Biological Results, rating)” value in assay [3] is on record as “A (80-100)”.
Take `CC(=O)Nc1ccc(NC(=O)c2cc(NC(=O)[C@H]3[C@H](c4cc(Cl)c(Cl)c(Cl)c4)C3(Cl)Cl)ccc2Cl)c(F)c1` (relative stereo) [PF42, trans-N-(4-Acetamido-2-fluorophenyl)-2-chloro-5-(2,2-dichloro-3-(3,4,5-trichlorophenyl)cyclopropane-1-carboxamido)benzamide]: the pest or weed control at 50 µg/cm2 in assay [1] (setting [4]) and in assay [2] (setting [5]) was 50 to 100% in each case. The YFM rating result in assay [3] is “A (80-100)”.
As for `O=C(Nc1ccc(F)cc1F)c1cc(NC(=O)[C@H]2[C@H](c3ccc(Cl)c(Cl)c3)C2(Cl)Cl)ccc1F` (relative stereo) [F62, trans-5-(2,2-Dichloro-3-(3,4-dichlorophenyl)cyclopropane-1-carboxamido)-N-(2,4-difluorophenyl)-2-fluorobenzamide], the pest or weed control at 50 µg/cm2 in assay [1] (setting [6]) and in assay [2] (setting [7]) was 50 to 100% throughout. In assay [3], the “YFM (Biological Results, rating)” value is “B (More than 0-Less than 80)”.
With `C=Cc1c(F)cnc(NC(=O)c2cc(NC(=O)[C@H]3[C@H](c4cc(Cl)cc(Cl)c4)C3(Cl)Cl)ccc2Cl)c1F` (relative stereo) [F393, trans-2-chloro-5-(2,2-dichloro-3-(3,5-dichlorophenyl)cyclopropane-1-carboxamido)-N-(3,5-difluoro-4-vinylpyridin-2-yl)benzamide], the pest or weed control at 50 µg/cm2 in assay [1] (setting [4]) and in assay [2] (setting [5]) was 50 to 100% throughout. Also, the YFM rating result in assay [3] is recorded as “A (80-100)”.
As for `Cc1cc(NC(=O)OC(C)(C)C)ccc1NC(=O)c1cccc(NC(=O)[C@H]2[C@H](c3cc(Cl)c(Cl)c(Cl)c3)C2(Cl)Cl)c1` (relative stereo) [F262, trans-tert-Butyl (4-(3-(2,2-dichloro-3-(3,4,5-trichlorophenyl)cyclopropane-1-carboxamido)benzamido)-3-methylphenyl)carbamate], the pest or weed control at 50 µg/cm2 in assay [1] (setting [6]) and in assay [2] (setting [7]) was 50 to 100% each time. In addition, the “YFM (Biological Results, rating)” value in assay [3] is reported as “B (More than 0-Less than 80)”.
Consider `O=C(Nc1ncc(F)cc1F)c1cc(NC(=O)[C@H]2[C@H](c3ccc(C(F)F)c(F)c3)C2(Cl)Cl)ccc1Cl` (relative stereo) [F589, 2-chloro-5-(trans-2,2-dichloro-3-(4-(difluoromethyl)-3-fluorophenyl)cyclopropane-1-carboxamido)-N-(3,5-difluoropyridin-2-yl)benzamide], for which the pest or weed control at 50 µg/cm2 in assay [1] (setting [4]) and in assay [2] (setting [5]) was 50 to 100% each time. Moreover, the YFM rating entry in assay [3] is “A (80-100)”.
In the case of `Cn1nc(NC(=O)c2cc(NC(=O)C3C(c4cc(Cl)cc(Cl)c4)C3(Cl)Cl)ccc2Cl)c2c(F)cccc21` (stereo not drawn) [F449, 2-Chloro-5-(trans)-2,2-dichloro-3-(3,5-dichlorophenyl)cyclopropane-1-carboxamido)-N-(4-fluoro-1-methyl-1H-indazol-3-yl)benzamide], the pest or weed control at 50 µg/cm2 in assay [1] (setting [4]) and in assay [2] (setting [5]) was 50 to 100% in each case. Further, the YFM rating result in assay [3] is listed as “A (80-100)”.
